Reference: US10178866B2, “N-halamine containing fibrous compositions and uses thereof” (priority 2014, dated 2019)
Values after ≈ are worked out from the molar mass of the structure shown.

Tests used:
[1] = tested on: Escherichia coli O157:H7 ATCC 43895; assay: sandwich test, wet wipes; assay type: cell-based; details: contact time 1 min, inoculum 6.50
Method: (§1) In the first test, CVS brand commercial wet wipes were first dried at 45° C. for 1 hour before impregnation with solutions of compound I. Different concentrations (wt %) of compound I were prepared in ethyl alcohol, and the wipes were soaked in the solutions for 5 minutes. After soaking in the solutions, each wipe was mounted between two filter papers, and a weight of 290 grams was placed uniformly over the stack. At the end of a 30 second period, the wet wipes were placed in closed vials to prevent further loss of solvent.
(§2) For antibacterial testing, CVS brand commercial wipes were used as received as controls and wipes impregnated with compound I at a concentration of 1.0 wt % in ethyl alcohol were prepared as described above. […] After the plates were incubated at 37° C. for 24 hours, viable bacterial colonies were counted for the biocidal efficacy analysis.

[2] = tested on: Staphylococcus aureus ATCC 6538; assay: sandwich test, wet wipes; assay type: cell-based; details: contact time 1 min, inoculum 6.35
Method: as §1, §2

[3] = solubility; assay type: physicochemical; details: 22° C.
Source text: The precursor 2,2,5,5-tetramethyl-4-imidazolidinone can be prepared according to the method outlined in Tsao or in Worley based upon oxidation of the corresponding thione with hydrogen peroxide in basic solution. The thione can be prepared by the method of Christian (see “4-imidazolidinethiones,” J. Org. Chem., 1957; 22:396), which entails reaction of sodium cyanide, ammonium chloride, ammonium sulfide, and acetone in aqueous solution. […] Compound I in its pure form contains 20.1 percent by weight oxidative chlorine. […] However, the compound is much more soluble in ethyl or isopropyl alcohol, such that a solution greater than 5000 mg/L oxidative chlorine can easily be obtained.

[4] = tested on: Escherichia coli O157:H7 ATCC 43895; assay: sandwich test, gauze pads (wound dressing); assay type: cell-based; details: chlorine loading 0.47 ± 0.01 wt %, inoculum 5.86 logs
Method: (§3) Compound I at a concentration of 1% by weight was dissolved in ethyl alcohol at room temperature. Non-stick gauze pads sized 20.3×7.6 cm (8×3 inch) obtained from Curad® were soaked in the solution for 10 minutes. The gauze pads were then passed through a laboratory wringer (Birch Brothers Southern, Waxhaw, N.C., U.S.A.) at low pressure settings. This procedure was followed by drying the samples at room temperature overnight. The titrated oxidative chlorine loading of the gauze pads was 0.47±0.01 wt %.
(§4) Gauze pads impregnated with compound I and non-impregnated sterile gauze pads (used as received as controls) were challenged with Staphylococcus aureus (S. aureus, ATCC 6538), Escherichia coli(E. coli O157:H7, ATCC 43895), and Pseudomonas aeruginosa (P. aeruginosa, ATCC 27853). The bacteria were suspended in 100 μM phosphate buffer (pH 7) to produce a suspension of known population (colony forming units, CFU/mL). Then, an aliquot of 25 μL of this suspension was placed in the center of a 2.54×2.54 cm^2 gauze swatch, and a second identical swatch was placed on top. Both swatches were covered by a sterile weight to ensure sufficient contact with the bacteria. After predetermined contact times, samples were quenched by 5.0 mL of sterile 0.02 N sodium thiosulfate solution to neutralize the oxidative chlorine and thus terminate the disinfection action. Samples were vortexed for 2 minutes, and then serial dilutions were prepared using pH 7, 100 μM phosphate buffer and plated on Trypticase soy agar plates. After the plates were incubated at 37° C. for 24 hours, viable bacterial colonies were counted for the biocidal efficacy analysis.

[5] = tested on: Pseudomonas aeruginosa ATCC 27853; assay: sandwich test, gauze pads (wound dressing); assay type: cell-based; details: chlorine loading 0.47 ± 0.01 wt %, inoculum 6.12 logs
Method: as §3, §4

[6] = tested on: Staphylococcus aureus ATCC 6538; assay: sandwich test, gauze pads (wound dressing); assay type: cell-based; details: chlorine loading 0.47 ± 0.01 wt %, inoculum 6.00 logs
Method: as §3, §4

[7] = hydrolysis equilibrium / dissociation of compound I to free chlorine; assay type: physicochemical
[8] = contact time 1 min, listed as compound I

Compound: CC1(C)NC(=O)C(C)(C)N1Cl [Compound I, 1-chloro-2,2,5,5-tetramethyl-4-imidazolidinone]
- Bacterial Reduction (logs) E. coli O157:H7 [1]: 6.5 logs
- Bacterial Reduction (logs) S. aureus [2]: 6.35 logs
- solubility in water [3]: 1930 µg/mL (≈ 10.9 mM)
- weight percent of oxidative chlorine under saturated conditions ([3]; water): 0.0388 weight percent
- Bacterial Reduction (log) E. coli O157:H7 ([4]; contact time 1 min): 5.86 log
- Bacterial Reduction (log) E. coli O157:H7 [4, 8]: about 6 log
- Bacterial Reduction (log) E. coli O157:H7 ([4]; contact time 5 min): 5.86 log
- Bacterial Reduction (log) E. coli O157:H7 ([4]; contact time 10 min): 5.86 log
- Bacterial Reduction (log) E. coli O157:H7 ([4]; contact time 30 min): 5.86 log
- Bacterial Reduction (log) P. aeruginosa ([5]; contact time 1 min): 6.12 log
- Bacterial Reduction (log) P. aeruginosa [5, 8]: about 6 log
- Bacterial Reduction (log) P. aeruginosa ([5]; contact time 5 min): 6.12 log
- Bacterial Reduction (log) P. aeruginosa ([5]; contact time 10 min): 6.12 log
- Bacterial Reduction (log) P. aeruginosa ([5]; contact time 30 min): 6.12 log
- Bacterial reduction (log) S. aureus ([6]; contact time 1 min): 3.07 log
- Bacterial reduction (log) S. aureus ([6]; contact time 5 min): 6.00 log
- Bacterial reduction (log) S. aureus ([6]; contact time 10 min): 6.00 log
- Bacterial reduction (log) S. aureus ([6]; contact time 30 min): 6.00 log
- dissociation constant (chlorine release) [7]: lower than 10^−11
- hydrolysis equilibrium constant to produce 2,2,5,5-tetramethyl-4-imidazolidinone and free chlorine (HOCl) ([7]; ambient temperature): lower than 10^−11
